Data: patent US20260109690A1, “HDAC6 INHIBITORS AND METHOD OF THEIR USE” (Baerenkraft Therapeutics, LLC., priority 2024, published 2026)
Several values for one entry are separate records, joined by “and”; a condition that tells them apart may be missing. Equal values may be shown once.

Key:
HDAC10 = target: T1, HDAC10 (Homo sapiens, UniProt Q969S8); assay: HDAC selectivity panel: HDAC10; format: biochemical
T1 sequence (Q969S8 1-669): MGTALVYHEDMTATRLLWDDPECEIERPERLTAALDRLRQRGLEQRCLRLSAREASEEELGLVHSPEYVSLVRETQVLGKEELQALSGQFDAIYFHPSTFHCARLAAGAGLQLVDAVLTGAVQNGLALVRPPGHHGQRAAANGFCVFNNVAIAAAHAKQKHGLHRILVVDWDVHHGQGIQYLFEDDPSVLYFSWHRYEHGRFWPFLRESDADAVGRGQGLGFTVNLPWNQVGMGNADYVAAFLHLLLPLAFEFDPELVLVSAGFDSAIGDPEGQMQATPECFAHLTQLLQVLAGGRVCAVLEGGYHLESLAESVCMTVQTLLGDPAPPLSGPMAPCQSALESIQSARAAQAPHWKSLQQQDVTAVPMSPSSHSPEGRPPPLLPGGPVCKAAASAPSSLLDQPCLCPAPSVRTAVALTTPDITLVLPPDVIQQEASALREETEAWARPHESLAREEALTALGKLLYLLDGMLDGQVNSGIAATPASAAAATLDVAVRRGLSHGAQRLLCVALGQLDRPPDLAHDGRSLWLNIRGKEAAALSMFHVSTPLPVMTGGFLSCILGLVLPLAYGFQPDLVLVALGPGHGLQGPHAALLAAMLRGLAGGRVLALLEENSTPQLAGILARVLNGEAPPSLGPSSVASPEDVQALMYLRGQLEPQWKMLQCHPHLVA

HDAC11 = target: T2, HDAC11 (Homo sapiens, UniProt Q96DB2); assay: HDAC selectivity panel: HDAC11; format: biochemical
T2 sequence (Q96DB2 1-347): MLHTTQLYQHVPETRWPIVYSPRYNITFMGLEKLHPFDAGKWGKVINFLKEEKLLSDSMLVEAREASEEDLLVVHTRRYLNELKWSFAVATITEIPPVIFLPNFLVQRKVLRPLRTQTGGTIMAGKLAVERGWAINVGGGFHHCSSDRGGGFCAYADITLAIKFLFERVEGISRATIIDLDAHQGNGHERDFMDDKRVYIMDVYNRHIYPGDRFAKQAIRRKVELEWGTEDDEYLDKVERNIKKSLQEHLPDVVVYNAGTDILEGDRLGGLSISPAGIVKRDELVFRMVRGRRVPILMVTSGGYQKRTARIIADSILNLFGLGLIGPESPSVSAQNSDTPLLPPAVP

HDAC6 = target: T3, HDAC6 (Homo sapiens, UniProt Q9UBN7); assay: NanoBRET assay for target engagement in HEK293 cells transiently transfected with HDAC6; format: cell-based; conditions: HEK293 cells transfected with HDAC6-NanoLuc Fusion vector, 1 hour
T3 sequence (Q9UBN7 1-1215): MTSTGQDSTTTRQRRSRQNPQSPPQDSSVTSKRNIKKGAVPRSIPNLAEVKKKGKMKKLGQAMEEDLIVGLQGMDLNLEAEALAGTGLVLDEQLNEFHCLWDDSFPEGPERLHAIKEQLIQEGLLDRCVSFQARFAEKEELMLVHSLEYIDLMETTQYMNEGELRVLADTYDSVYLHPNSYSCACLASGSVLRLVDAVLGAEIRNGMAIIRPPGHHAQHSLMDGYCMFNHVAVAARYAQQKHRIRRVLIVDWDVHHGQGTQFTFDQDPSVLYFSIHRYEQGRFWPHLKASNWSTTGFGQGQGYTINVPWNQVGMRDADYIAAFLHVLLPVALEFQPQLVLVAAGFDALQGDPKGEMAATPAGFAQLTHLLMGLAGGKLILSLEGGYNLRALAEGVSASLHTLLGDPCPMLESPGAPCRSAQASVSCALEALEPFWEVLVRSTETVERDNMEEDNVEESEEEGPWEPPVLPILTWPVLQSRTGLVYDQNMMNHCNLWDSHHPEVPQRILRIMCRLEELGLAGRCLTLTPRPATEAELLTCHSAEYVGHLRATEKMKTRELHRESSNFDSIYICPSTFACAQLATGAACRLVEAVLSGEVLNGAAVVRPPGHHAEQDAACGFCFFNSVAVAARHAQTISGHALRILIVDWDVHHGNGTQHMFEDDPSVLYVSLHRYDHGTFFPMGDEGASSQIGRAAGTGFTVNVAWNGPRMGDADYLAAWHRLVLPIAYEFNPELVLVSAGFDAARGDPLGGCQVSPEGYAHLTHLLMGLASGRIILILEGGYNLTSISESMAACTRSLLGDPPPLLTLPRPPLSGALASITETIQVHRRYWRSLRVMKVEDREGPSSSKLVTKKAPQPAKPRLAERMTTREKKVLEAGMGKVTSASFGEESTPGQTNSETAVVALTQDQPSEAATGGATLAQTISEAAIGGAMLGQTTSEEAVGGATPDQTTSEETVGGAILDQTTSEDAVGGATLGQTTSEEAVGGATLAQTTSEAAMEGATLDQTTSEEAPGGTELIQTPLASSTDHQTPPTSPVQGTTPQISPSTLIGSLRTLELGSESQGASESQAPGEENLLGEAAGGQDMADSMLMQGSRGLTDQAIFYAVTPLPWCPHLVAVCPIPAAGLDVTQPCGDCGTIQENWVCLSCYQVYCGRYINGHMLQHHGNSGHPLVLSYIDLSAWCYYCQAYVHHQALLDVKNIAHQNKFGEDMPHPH

[1] = test system: B6SJL.SOD1-G93A transgenic mouse model of amyotrophic lateral sclerosis; assay: ALS mouse model: rotarod test; format: in vivo, mice
Description: The Rotarod test was used for motor coordination assessment in mice. Animals were accustomed to the rotarod at 10 rpm for 300 s followed by training for 2 days at accelerated rpm (4-40 for 300 s) with 15 minutes inter trial interval. On the day of the test, animals were subjected to rotarod test at 4-40 rpm for 300 s with 15 minutes inter trial interval. During the training and test, the latency to fall off the rod was recorded. A total of 3 trials were recorded, data was averaged and analyzed.
(§1) Note: Behavioral tests were performed once in two weeks, i.e. at week 10, 12, 14 and 16.

[2] = test system: B6SJL.SOD1-G93A transgenic mouse model of amyotrophic lateral sclerosis; assay: ALS mouse model: wire suspension test (inverted screen test); format: in vivo, mice
Description: Wire hang test was used to measure the muscle strength of animals. During the test, the animals were placed on the top of a wire lid of a housing cage. Then the lid was inverted and slightly shaken to ensure the grip of animal on the lid. Latency to fall(s) off the lid was recorded. A total of 3 trials were recorded and averaged to analyze the data. A cutoff time of 90 s was used to end the trial.
as §1

[3] = G4 30 mg/kg (50 mg/kg from day 34) p.o. QD, Week 10
[4] = G4 30 mg/kg (50 mg/kg from day 34) p.o. QD, Week 12
[5] = G4 30 mg/kg (50 mg/kg from day 34) p.o. QD, Week 14
[6] = G4 30 mg/kg (50 mg/kg from day 34) p.o. QD, Week 16

CC1CN(Cc2ccc(Nc3nccc(-c4ccc(C(=O)NO)cc4)n3)cc2F)CCO1 (racemic) [Compound I-8, 4-(2-((3-fluoro-4-((2-methylmorpholino)methyl)phenyl)amino)pyrimidin-4-yl)-N-hydroxybenzamide]
IC50 (HDAC10): 9.15 nM
IC50 (HDAC11): 416 nM
IC50 (HDAC6): 34.7 nM and 35 nM
Rotarod Test latency to fall ([1]; G3 15 mg/kg p.o. QD, Week 10): 137.59 ± 15.62 s
Rotarod Test latency to fall ([1]; G3 15 mg/kg p.o. QD, Week 12): 119.19 ± 18.07 s
Rotarod Test latency to fall ([1]; G3 15 mg/kg p.o. QD, Week 14): 88.63 ± 10.57 s
Rotarod Test latency to fall ([1]; G3 15 mg/kg p.o. QD, Week 16): 34.04 ± 12.74 s
Rotarod Test latency to fall [1, 3]: 140 ± 13.47 s
Rotarod Test latency to fall [1, 4]: 120.58 ± 13.17 s
Rotarod Test latency to fall [1, 5]: 86 ± 16.17 s
Rotarod Test latency to fall [1, 6]: 39.79 ± 20.43 s
Wire Suspension test latency to fall ([2]; G3 15 mg/kg p.o. QD, Week 10): 49.70 ± 8.667 s
Wire Suspension test latency to fall ([2]; G3 15 mg/kg p.o. QD, Week 12): 37.48 ± 9.92 s
Wire Suspension test latency to fall ([2]; G3 15 mg/kg p.o. QD, Week 14): 19.22 ± 7.18 ^ seconds
Wire Suspension test latency to fall ([2]; G3 15 mg/kg p.o. QD, Week 16): 3.71 ± 0.73 s
latency to fall of the wire vs. G2 ([2]; G3 15 mg/kg, week 14): significant reduction in latency to fall of the wire
Wire Suspension test latency to fall [2, 3]: 60.38 ± 10.00 s
Wire Suspension test latency to fall [2, 4]: 45.46 ± 7.98 s
Wire Suspension test latency to fall [2, 5]: 28.13 ± 5.38 ^ seconds
Wire Suspension test latency to fall [2, 6]: 6.46 ± 1.58 s
latency to fall of the wire vs. G2 ([2]; G4, week 14): significant reduction in latency to fall of the wire
